Tested on: Dog PRP
Test: In-Vitro Platelet Aggregation in PRP (ADP-induced, dog platelet-rich plasma)
Assay type: cell-based
Settings: Canis lupus familiaris, 1 minute preincubation at 37° C., IC50 by linear regression of dose response curve
Description: In-Vitro Platelet Aggregation in PRP
Healthy male or female dogs were fasted for 8 hours prior to drawing blood; then 30 ml whole blood was collected using a butterfly needle and 30 cc plastic syringe with 3 ml of 0.129M buffered sodium citrate (3.8%). The syringe was rotated carefully as blood was drawn to mix the citrate. Platelet-rich plasma (PRP) was prepared by centrifugation at 975×g for 3.17 minutes at room temperature, allowing the centrifuge to coast to a stop without braking. The PRP was removed from the blood with a plastic pipette and placed in a plastic capped, 50 ml Corning conical sterile centrifuge tube which was held at room temperature. Platelet poor plasma (PPP) was prepared by centrifuging the remaining blood at 2000×g for 15 minutes at room temperature allowing the centrifuge to coast to a stop without braking. The PRP was adjusted with PPP to a count of 2-3×10^8 platelets per ml. 400 μl of the PRP preparation and 50 μl of the compound to be tested or saline were preincubated for 1 minute at 37° C. in a BioData aggregometer (BioData, Horsham, Pa.). 50 μl of adenosine 5'-diphosphate (ADP) (50 μm final concentration) was added to the cuvettes and the aggregation was monitored for 1 minute. All compounds are tested in duplicate. Results are calculated as follows: […]

SMILES | IC50
N=C(N)c1ccc(CCCCNC(=O)N[C@@H](CC(=O)O)C(=O)N[C@@H](Cc2ccccc2)C(=O)O)cc1 [Example 2, N-[N-[[[4-[4-(aminoiminomethyl)phenyl]butyl]amino]-carbonyl]-L-α-aspartyl]-L-phenylalanine] | 760 nM
N=C(N)c1ccc(CCCCNC(=O)N[C@@H](CC(=O)O)C(=O)N[C@@H](Cc2c[nH]c3ccccc23)C(=O)O)cc1 [Example 3, N-[N-[[[4-[4-(aminoiminomethyl)phenyl]butyl]amino]carbonyl]-L-α-spartyl]-L-tryptophane] | 200 nM
